# Laboratory results published in patent US8680159B2, “Bradykinin 1 receptor modulating compounds” (Gruenenthal GmbH, priority 2010, dated 2014).
# Biological target: T1, human B1R receptor (CHO K1 cells stably transfected with the human B1R gene) (Homo sapiens, UniProt P46663)
# T1 construct: expressed in transfected cells; host or cells: CHO K1 cells (Chinese hamster ovary), stably transfected
# T1 sequence (P46663 1-353): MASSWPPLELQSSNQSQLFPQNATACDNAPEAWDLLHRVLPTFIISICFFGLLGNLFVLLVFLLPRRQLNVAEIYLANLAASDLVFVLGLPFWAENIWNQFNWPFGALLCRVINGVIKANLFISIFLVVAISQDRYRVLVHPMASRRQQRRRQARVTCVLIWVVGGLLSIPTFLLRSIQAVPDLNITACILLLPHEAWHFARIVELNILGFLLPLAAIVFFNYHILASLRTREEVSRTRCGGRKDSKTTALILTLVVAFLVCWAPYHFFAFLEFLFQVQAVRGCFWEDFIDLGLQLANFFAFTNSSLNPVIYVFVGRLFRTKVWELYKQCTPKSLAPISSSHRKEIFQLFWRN
# Experiment: Functional study on the bradykinin receptor 1 (B1R), Ca2+ fluorescence (Fluo-4) FLIPR/Novostar assay, hB1R cells
# Format: cell-based
# Conditions: CHO-K1, read-out: % Inhibition (h-B1R) at 10 μM
# Summary of the method: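 Ca2+ influx (Fluo-4, peak fluorescence, λex 488/λem 540 nm) was measured in CHO K1 lines expressing rat or human B1R. After a 10 μM test-compound pre-addition scoring % activation, cells received EC80 agonist: Des-Arg9-bradykinin for rat, Lys-Des-Arg9-bradykinin for human. Antagonism was expressed as % of maximum inhibition, with IC50 from varied concentrations.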
row,inhibition at 10 µM [%],SMILES
1,81,"CN(C(=O)c1ccc2c(c1)C(NC(=O)c1cncnc1)CC2)C1CCN(c2ccc3cnccc3c2)CC1 (centres unmarked) [CC_H-130, N-[6-[(1-Isoquinolin-6-yl-piperidin-4-yl)-methyl-carbamoyl]-2,3-dihydro-1H-inden-1-yl]-pyrimidine-5-carboxylic acid amide]"
2,99,"Cc1cc(N2CCC(N(C)C(=O)c3ccc4c(c3)C(NC(=O)C(C)(C)c3ccccc3Cl)CC4)CC2)cc(C)n1 (centres unmarked) [CC_H-131, 3-[[2-(2-Chlorophenyl)-2-methyl-propanoyl]amino]-N-[1-(2,6-dimethyl-pyridin-4-yl)-piperidin-4-yl]-N-methyl-2,3-dihydro-1H-indene-5-carboxylic acid amide]"
3,99,"CC(C)CC(=O)NC1CCc2ccc(C(=O)NCCC3CCN(c4ccncc4)CC3)cc21 (centres unmarked) [CC_H-132, 3-(3-Methyl-butanoylamino)-N-[2-(1-pyridin-4-yl-piperidin-4-yl)-ethyl]-2,3-dihydro-1H-indene-5-carboxylic acid amide]"
4,90,"Cc1cccc(C)c1C(=O)NC1CCc2ccc(C(=O)N(C)C3CCN(c4ccc5cnccc5c4)CC3)cc21 (centres unmarked) [CC_H-133, 3-[(2,6-Dimethyl-benzoyl)amino]-N-(1-isoquinolin-6-yl-piperidin-4-yl)-N-methyl-2,3-dihydro-1H-indene-5-carboxylic acid amide]"
5,100,"Cc1cc(N2CCC(N(C)C(=O)c3ccc4c(c3)C(N(C)S(=O)(=O)c3c(Cl)cccc3C(F)(F)F)CC4)CC2)cc(C)n1 (centres unmarked) [CC_H-134, 3-[[[2-Chloro-6-(trifluoromethyl)-phenyl]sulfonyl]-methyl-amino]-N-[1-(2,6-dimethyl-pyridin-4-yl)-piperidin-4-yl]-N-methyl-2,3-dihydro-1H-indene-5-carboxylic acid amide]"
6,100,"CC(C)CC(=O)NC1CCCc2ccc(C(=O)N(C)C3CCN(c4ccncc4)CC3)cc21 (centres unmarked) [CC_H-135, N-Methyl-8-(3-methyl-butanoylamino)-N-(1-pyridin-4-yl-piperidin-4-yl)-5,6,7,8-tetrahydro-naphthalene-2-carboxylic acid amide]"
7,100,"O=C(NCCC1CCN(c2ccncc2)CC1)c1ccc2c(c1)C(NC(=O)c1c(Cl)cccc1C(F)(F)F)CC2 (centres unmarked) [CC_H-136, 3-[[2-Chloro-6-(trifluoromethyl)-benzoyl]amino]-N-[2-(1-pyridin-4-yl-piperidin-4-yl)-ethyl]-2,3-dihydro-1H-indene-5-carboxylic acid amide]"
8,96,"CN(C(=O)c1ccc2c(c1)C(NC(=O)c1c(Cl)cccc1C(F)(F)F)CC2)C1CCN(c2ccncc2)CC1 (centres unmarked) [CC_H-137, 3-[[2-Chloro-6-(trifluoromethyl)-benzoyl]amino]-N-methyl-N-(1-pyridin-4-yl-piperidin-4-yl)-2,3-dihydro-1H-indene-5-carboxylic acid amide]"
9,98,"Cc1cccc(C)c1C(=O)NC1CCc2ccc(C(=O)N(C)C3CCN(c4ccncc4)CC3)cc21 (centres unmarked) [CC_H-138, 3-[(2,6-Dimethyl-benzoyl)amino]-N-methyl-N-(1-pyridin-4-yl-piperidin-4-yl)-2,3-dihydro-1H-indene-5-carboxylic acid amide]"
10,98,"CN(C(=O)c1ccc2c(c1)C(NC(=O)C(C)(C)c1ccccc1Cl)CC2)C1CCN(c2ccncc2)CC1 (centres unmarked) [CC_H-139, 3-[[2-(2-Chlorophenyl)-2-methyl-propanoyl]amino]-N-methyl-N-(1-pyridin-4-yl-piperidin-4-yl)-2,3-dihydro-1H-indene-5-carboxylic acid amide]"
11,100,"CN(C(=O)c1ccc2c(c1)C(NC(=O)C1CCCCC1)CC2)C1CCN(c2ccncc2)CC1 (centres unmarked) [CC_H-140, 3-(Cyclohexanecarbonylamino)-N-methyl-N-(1-pyridin-4-yl-piperidin-4-yl)-2,3-dihydro-1H-indene-5-carboxylic acid amide]"
12,100,"CN(C(=O)c1ccc2c(c1)C(NS(=O)(=O)Cc1ccccc1C(F)(F)F)CC2)C1CCN(c2ccncc2)CC1 (centres unmarked) [CC_H-141, N-Methyl-N-(1-pyridin-4-yl-piperidin-4-yl)-3-[[[2-(trifluoromethyl)-phenyl]-methylsulfonyl]amino]-2,3-dihydro-1H-indene-5-carboxylic acid amide]"
13,100,"Cc1cc(N2CCC(N(C)C(=O)c3ccc4c(c3)C(NC(=O)N(C)c3ccccc3Cl)CC4)CC2)cc(C)n1 (centres unmarked) [CC_H-142, 3-[[(2-Chlorophenyl)-methyl-carbamoyl]amino]-N-[1-(2,6-dimethyl-pyridin-4-yl)-piperidin-4-yl]-N-methyl-2,3-dihydro-1H-indene-5-carboxylic acid amide]"
14,100,"CN(C(=O)c1ccc2c(c1)CCC2NS(=O)(=O)c1c(Cl)cccc1C(F)(F)F)C1CCN(c2ccncc2)CC1 (centres unmarked) [CC_H-143, 1-[[[2-Chloro-6-(trifluoromethyl)-phenyl]sulfonyl]amino]-N-methyl-N-(1-pyridin-4-yl-piperidin-4-yl)-2,3-dihydro-1H-indene-5-carboxylic acid amide]"

# Same assay, conditions: CHO-K1, read-out: % inhibition (human B1R) at 10 μM
row,inhibition at 10 µM [%],SMILES
1,65,"Cc1cc(N2CCC(N(C)C(=O)c3ccc4c(c3)[C@H](N(C(=O)c3ccccc3C)C(C)C)CC4)CC2)nc(C)n1 [Example H-172, (3R)-N-[1-(2,6-Dimethyl-pyrimidin-4-yl)-piperidin-4-yl]-3-[isopropyl-(2-methyl-benzoyl)-amino]-N-methyl-2,3-dihydro-1H-indene-5-carboxylic acid amide]"
2,100,"CCN(C(=O)c1cccnc1C(F)(F)F)[C@@H]1CCc2ccc(C(=O)N(C)C3CCN(c4cc(C)nc(C)n4)CC3)cc21 [Example H-174, N-[(1R)-6-[[1-(2,6-Dimethyl-pyrimidin-4-yl)-piperidin-4-yl]-methyl-carbamoyl]-2,3-dihydro-1H-inden-1-yl]-N-ethyl-2-(trifluoromethyl)-pyridine-3-carboxylic acid amide]"
3,97,"Cc1cc(N2CCC(N(C)C(=O)c3ccc4c(c3)[C@H](N(C)C(=O)c3c(F)cccc3Cl)CC4)CC2)nc(C)n1 [Example H-175, (3R)-3-[(2-Chloro-6-fluoro-benzoyl)-methyl-amino]-N-[1-(2,6 dimethyl-pyrimidin-4-yl)-piperidin-4-yl]-N-methyl-2,3-dihydro-1H-indene-5-carboxylic acid amide]"
4,97,CCN(C(=O)c1c(F)cccc1Cl)[C@@H]1CCc2ccc(C(=O)N(C)C3CCN(c4cc(C)nc(C)n4)CC3)cc21 [Example H-176]
5,100,"CN(C(=O)c1ccc2c(c1)[C@H](N(C)C(=O)CCC1CCCC1)CC2)C1CCN(c2ccncc2F)CC1 [Example H-188, (3R)-3-(3-Cyclopentyl-propanoyl-methyl-amino)-N-[1-(3-fluoro-pyridin-4-yl)-piperidin-4-yl]-N-methyl-2,3-dihydro-1H-indene-5-carboxylic acid amide]"
6,100,"Cc1cc(N2CCC(N(C)C(=O)c3ccc4c(c3)[C@H](NS(=O)(=O)CC(C)C)CC4)CC2)nc(C)n1 [Example H-191, (3R)-N-[1-(2,6-Dimethyl-pyrimidin-4-yl)-piperidin-4-yl]-N-methyl-3-[(2-methyl-propylsulfonyl)amino]-2,3-dihydro-1H-indene-5-carboxylic acid amide]"
